Source: patent US10787452B2 (Vertex Pharmaceuticals Incorporated, priority 2012, dated 2020)

test system: HCT116 colorectal cancer cells; experiment: Cisplatin sensitization assay (96 h cell viability MTS); assay type: cell-based; settings: 96 h MTS, compound plus Cisplatin;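 note: compound concentration needed to lower the Cisplatin-alone IC50 by a set fold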
In short: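 HCT116 cells were co-treated with compound and cisplatin, each in 2-fold serial dilutions from a 10 μM top final concentration, as a full matrix. After 96 h at 37 °C, 5% CO2, viability was read by MTS following a 1 h incubation with reagent.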

Row | Structure (SMILES) | Cisplatin Sensitization Assay
1 | Nc1nn2cc(F)cnc2c1C(=O)Nc1cncc(F)c1N1CCC(OCCN2CCCC2)CC1 [I-N-167, 2-amino-6-fluoro-N-(5-fluoro-4-(4-(2-(pyrrolidin-1-yl)ethoxy)piperidin-1-yl)pyridin-3-yl)pyrazolo[1,5-a]pyrimidine-3-carboxamide] | +++ (Compounds with a Cisplatin sensitization value of <0.02 μM are marked with “+++.”)
2 | Nc1nn2cc(F)cnc2c1C(=O)Nc1cncc(F)c1N1CCN(C(=O)C2CNC2)CC1 [I-N-168, 2-amino-N-(4-(4-(azetidine-3-carbonyl)piperazin-1-yl)-5-fluoropyridin-3-yl)-6-fluoropyrazolo[1,5-a]pyrimidine-3-carboxamide] | + (Compounds with a Cisplatin sensitization value >0.2 μM but <5 μM are marked with “+.”)
3 | Nc1nn2cc(F)cnc2c1C(=O)Nc1cncc(F)c1N1CCC(S(=O)(=O)N2CCC2)CC1 [I-N-169, 2-amino-N-(4-(4-(azetidin-1-ylsulfonyl)piperidin-1-yl)-5-fluoropyridin-3-yl)-6-fluoropyrazolo[1,5-a]pyrimidine-3-carboxamide] | +++ (Compounds with a Cisplatin sensitization value of <0.02 μM are marked with “+++.”)
4 | Nc1nn2cc(F)cnc2c1C(=O)Nc1cnccc1N1CCC(S(=O)(=O)N2CCOCC2)CC1 [I-N-170, 2-amino-6-fluoro-N-(4-(4-(morpholinosulfonyl)piperidin-1-yl)pyridin-3-yl)pyrazolo[1,5-a]pyrimidine-3-carboxamide] | +++ (Compounds with a Cisplatin sensitization value of <0.02 μM are marked with “+++.”)
5 | CN1CCN(CC2CCN(c3c(F)cncc3NC(=O)c3c(N)nn4cc(F)cnc34)CC2)CC1=O [I-N-171, 2-amino-6-fluoro-N-(5-fluoro-4-(4-((4-methyl-3-oxopiperazin-1-yl)methyl)piperidin-1-yl)pyridin-3-yl)pyrazolo[1,5-a]pyrimidine-3-carboxamide] | +++ (Compounds with a Cisplatin sensitization value of <0.02 μM are marked with “+++.”)
6 | Nc1nn2cc(F)cnc2c1C(=O)Nc1cncc(F)c1N1CCN(C(=O)C2CNCCO2)CC1 (stereo not shown) [I-N-172, 2-amino-6-fluoro-N-(5-fluoro-4-(4-(morpholine-2-carbonyl)piperazin-1-yl)pyridin-3-yl)pyrazolo[1,5-a]pyrimidine-3-carboxamide] | +++ (Compounds with a Cisplatin sensitization value of <0.02 μM are marked with “+++.”)
7 | CN1CCCCC1C(=O)N1CCN(c2c(F)cncc2NC(=O)c2c(N)nn3cc(F)cnc23)CC1 (stereo not shown) [I-N-173, 2-amino-6-fluoro-N-(5-fluoro-4-(4-(1-methylpiperidine-2-carbonyl)piperazin-1-yl)pyridin-3-yl)pyrazolo[1,5-a]pyrimidine-3-carboxamide] | +++ (Compounds with a Cisplatin sensitization value of <0.02 μM are marked with “+++.”)
8 | CN1CCOC(C(=O)N2CCN(c3c(F)cncc3NC(=O)c3c(N)nn4cc(F)cnc34)CC2)C1 (stereo not shown) [I-N-174, 2-amino-6-fluoro-N-(5-fluoro-4-(4-(4-methylmorpholine-2-carbonyl)piperazin-1-yl)pyridin-3-yl)pyrazolo[1,5-a]pyrimidine-3-carboxamide] | +++ (Compounds with a Cisplatin sensitization value of <0.02 μM are marked with “+++.”)
9 | CN1CCC(S(=O)(=O)N2CCN(c3c(F)cncc3NC(=O)c3c(N)nn4cc(F)cnc34)CC2)CC1 [I-N-175, 2-amino-6-fluoro-N-(5-fluoro-4-(4-((1-methylpiperidin-4-yl)sulfonyl)piperazin-1-yl)pyridin-3-yl)pyrazolo[1,5-a]pyrimidine-3-carboxamide] | +++ (Compounds with a Cisplatin sensitization value of <0.02 μM are marked with “+++.”)
10 | Nc1nn2cc(F)cnc2c1C(=O)Nc1cnccc1N1CCN(S(=O)(=O)C2CC2)CC1 [I-N-176, 2-amino-N-(4-(4-(cyclopropylsulfonyl)piperazin-1-yl)pyridin-3-yl)-6-fluoropyrazolo[1,5-a]pyrimidine-3-carboxamide] | +++ (Compounds with a Cisplatin sensitization value of <0.02 μM are marked with “+++.”)
11 | Nc1nn2cc(F)cnc2c1C(=O)Nc1cnccc1N1CCN(S(=O)(=O)C2CCOCC2)CC1 [I-N-177, 2-amino-6-fluoro-N-(4-(4-((tetrahydro-2H-pyran-4-yl)sulfonyl)piperazin-1-yl)pyridin-3-yl)pyrazolo[1,5-a]pyrimidine-3-carboxamide] | +++ (Compounds with a Cisplatin sensitization value of <0.02 μM are marked with “+++.”)
12 | CS(=O)(=O)N1CCN(c2ccncc2NC(=O)c2c(N)nn3cc(F)cnc23)CC1 [I-N-178, 2-amino-6-fluoro-N-(4-(4-(methylsulfonyl)piperazin-1-yl)pyridin-3-yl)pyrazolo[1,5-a]pyrimidine-3-carboxamide] | +++ (Compounds with a Cisplatin sensitization value of <0.02 μM are marked with “+++.”)
13 | Nc1nn2cc(F)cnc2c1C(=O)Nc1cnccc1N1CCN(S(=O)(=O)C2CCOC2)CC1 (stereo not shown) [I-N-179, 2-amino-6-fluoro-N-(4-(4-((tetrahydrofuran-3-yl)sulfonyl)piperazin-1-yl)pyridin-3-yl)pyrazolo[1,5-a]pyrimidine-3-carboxamide] | +++ (Compounds with a Cisplatin sensitization value of <0.02 μM are marked with “+++.”)
14 | CN1CCC[C@@H]1C(=O)N1CCN(c2c(F)cncc2NC(=O)c2c(N)nn3cc(F)cnc23)CC1 [I-N-181, (R)-2-amino-6-fluoro-N-(5-fluoro-4-(4-(1-methylpyrrolidine-2-carbonyl)piperazin-1-yl)pyridin-3-yl)pyrazolo[1,5-a]pyrimidine-3-carboxamide] | +++ (Compounds with a Cisplatin sensitization value of <0.02 μM are marked with “+++.”)
15 | Nc1nn2cc(F)cnc2c1C(=O)Nc1cncc(F)c1N1CCN2C(=O)CC[C@@H]2C1 [I-N-182, (R)-2-amino-6-fluoro-N-(5-fluoro-4-(6-oxohexahydropyrrolo[1,2-a]pyrazin-2(1H)-yl)pyridin-3-yl)pyrazolo[1,5-a]pyrimidine-3-carboxamide] | ++ (Compounds with a Cisplatin sensitization value >0.02 μM but <0.2 μM are marked with “++.”)
16 | CN1CCOC2(CCN(c3ccncc3NC(=O)c3c(N)nn4cc(F)cnc34)CC2)C1 [I-N-183, 2-amino-6-fluoro-N-(4-(4-methyl-1-oxa-4,9-diazaspiro[5.5]undecan-9-yl)pyridin-3-yl)pyrazolo[1,5-a]pyrimidine-3-carboxamide] | +++ (Compounds with a Cisplatin sensitization value of <0.02 μM are marked with “+++.”)
17 | Nc1nn2cc(F)cnc2c1C(=O)Nc1cncc(F)c1N1CCC(c2nccs2)CC1 [I-N-184, 2-amino-6-fluoro-N-(5-fluoro-4-(4-(thiazol-2-yl)piperidin-1-yl)pyridin-3-yl)pyrazolo[1,5-a]pyrimidine-3-carboxamide] | ++ (Compounds with a Cisplatin sensitization value >0.02 μM but <0.2 μM are marked with “++.”)
18 | CCN1CCCC1C(=O)N1CCN(c2c(F)cncc2NC(=O)c2c(N)nn3cc(F)cnc23)CC1 (stereo not shown) [I-N-185, 2-amino-N-(4-(4-(1-ethylpyrrolidine-2-carbonyl)piperazin-1-yl)-5-fluoropyridin-3-yl)-6-fluoropyrazolo[1,5-a]pyrimidine-3-carboxamide] | ++ (Compounds with a Cisplatin sensitization value >0.02 μM but <0.2 μM are marked with “++.”)
19 | Nc1nn2cc(F)cnc2c1C(=O)Nc1cncc(F)c1N1CCN2C(=O)CC[C@@H]2C1 [I-N-186, (R)-2-amino-6-fluoro-N-(5-fluoro-4-(6-oxohexahydropyrrolo[1,2-a]pyrazin-2(1H)-yl)pyridin-3-yl)pyrazolo[1,5-a]pyrimidine-3-carboxamide] | +++ (Compounds with a Cisplatin sensitization value of <0.02 μM are marked with “+++.”)
20 | Nc1nn2cc(F)cnc2c1C(=O)Nc1cncc(F)c1N1CCN(C(=O)CN2CCCC2)CC1 [I-N-187, 2-amino-6-fluoro-N-(5-fluoro-4-(4-(2-(pyrrolidin-1-yl)acetyl)piperazin-1-yl)pyridin-3-yl)pyrazolo[1,5-a]pyrimidine-3-carboxamide] | +++ (Compounds with a Cisplatin sensitization value of <0.02 μM are marked with “+++.”)
21 | CN1CCC(S(=O)(=O)N2CCN(c3ccncc3NC(=O)c3c(N)nn4cc(F)cnc34)CC2)CC1 [I-N-188, 2-amino-6-fluoro-N-(4-(4-((1-methylpiperidin-4-yl)sulfonyl)piperazin-1-yl)pyridin-3-yl)pyrazolo[1,5-a]pyrimidine-3-carboxamide] | +++ (Compounds with a Cisplatin sensitization value of <0.02 μM are marked with “+++.”)
22 | Nc1nn2cc(F)cnc2c1C(=O)Nc1cncc(F)c1N1CCC(N2CCOCC2)CC1 [I-N-189, 2-amino-6-fluoro-N-(5-fluoro-4-(4-morpholinopiperidin-1-yl)pyridin-3-yl)pyrazolo[1,5-a]pyrimidine-3-carboxamide] | +++ (Compounds with a Cisplatin sensitization value of <0.02 μM are marked with “+++.”)
23 | CS(=O)(=O)C1CCN(c2ccncc2NC(=O)c2c(N)nn3cc(F)cnc23)CC1 [I-N-190, 2-amino-6-fluoro-N-(4-(4-(methylsulfonyl)piperidin-1-yl)pyridin-3-yl)pyrazolo[1,5-a]pyrimidine-3-carboxamide] | +++ (Compounds with a Cisplatin sensitization value of <0.02 μM are marked with “+++.”)
24 | CN1CCN(C(=O)C2CCN(c3c(F)cncc3NC(=O)c3c(N)nn4cc(F)cnc34)C2)CC1 (stereo not shown) [I-N-191, 2-amino-6-fluoro-N-(5-fluoro-4-(3-(4-methylpiperazine-1-carbonyl)pyrrolidin-1-yl)pyridin-3-yl)pyrazolo[1,5-a]pyrimidine-3-carboxamide] | + (Compounds with a Cisplatin sensitization value >0.2 μM but <5 μM are marked with “+.”)
25 | CN1CCN(CC2CCN(c3c(F)cncc3NC(=O)c3c(N)nn4cc(C5(C#N)CC5)cnc34)CC2)CC1 [I-N-192, 2-amino-6-(1-cyanocyclopropyl)-N-(5-fluoro-4-(4-((4-methylpiperazin-1-yl)methyl)piperidin-1-yl)pyridin-3-yl)pyrazolo[1,5-a]pyrimidine-3-carboxamide] | +++ (Compounds with a Cisplatin sensitization value of <0.02 μM are marked with “+++.”)
